Patent US20250230155A1 (Vanderbilt University, priority 2021, published 2025)
pEC50: −log10 of the molar value.

Biological target: T1, human mAChR M4 (Homo sapiens, UniProt P08173)
T1 construct: expressed in transfected cells
T1 sequence (P08173 1-479): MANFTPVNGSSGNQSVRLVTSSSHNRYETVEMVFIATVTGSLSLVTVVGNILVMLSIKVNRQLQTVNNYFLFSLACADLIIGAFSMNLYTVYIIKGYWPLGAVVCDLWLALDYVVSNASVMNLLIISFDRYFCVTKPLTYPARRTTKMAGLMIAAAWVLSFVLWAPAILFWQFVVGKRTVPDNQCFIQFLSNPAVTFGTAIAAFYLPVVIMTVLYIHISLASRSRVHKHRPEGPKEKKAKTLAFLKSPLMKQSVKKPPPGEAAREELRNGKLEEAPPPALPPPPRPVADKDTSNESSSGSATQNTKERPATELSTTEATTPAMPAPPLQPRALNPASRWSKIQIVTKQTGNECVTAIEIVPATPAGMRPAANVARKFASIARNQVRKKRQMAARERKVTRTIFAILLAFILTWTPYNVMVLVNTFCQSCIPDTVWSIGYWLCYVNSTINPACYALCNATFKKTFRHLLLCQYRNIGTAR
Test: mAChR M4 cell-based functional assay (calcium mobilization, CHO-K1 hM4-Gqi5 cells)
Settings: for Emax at 30 µM: CHO-K1, % ACh maximum at 30 μM, human M4; for pEC50: positive allosteric modulator activity, increase in the EC20 acetylcholine response, CHO-K1 hM4-Gqi5 cells, read-out: Human M4 EC50
Procedure, shortened: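 Fluorescent calcium read-out (Fluo-4 AM, FDSS, 1 Hz) in hM4-Gqi5 CHO-K1 cells, 11-point 1:3 compound series. Agonism scored on compound addition, PAM activity as increase of the 144 s EC20 acetylcholine response, antagonism as decrease of the 230 s EC80 response; four-parameter logistic fits give EC50 and Emax.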

Structure (SMILES)	Emax at 30 µM	pEC50
Cc1cc(C(=O)N2CCCC2)nnc1N1CCc2ncc(N3CCCn4nccc43)cc2C1 [Example 488, (6-(3-(6,7-dihydropyrazolo[1,5-a]pyrimidin-4(5H)-yl)-7,8-dihydro-1,6-naphthyridin-6(5H)-yl)-5-methylpyridazin-3-yl)(pyrrolidin-1-yl)methanone]	89%	6.66
Cc1cc(C(=O)NCc2ccncc2)nnc1N1CCc2ncc(N3CCCn4nccc43)cc2C1 [Example 490, 6-(3-(6,7-dihydropyrazolo[1,5-a]pyrimidin-4(5H)-yl)-7,8-dihydro-1,6-naphthyridin-6(5H)-yl)-5-methyl-N-(pyridin-4-ylmethyl)pyridazine-3-carboxamide]	100%	7.80
Cc1cc(C(=O)NCc2ccncc2)nnc1N1CCc2ncc(C(F)(F)F)cc2C1 [Example 493, 5-methyl-N-(pyridin-4-ylmethyl)-6-(3-(trifluoromethyl)-7,8-dihydro-1,6-naphthyridin-6(5H)-yl)pyridazine-3-carboxamide]	112%	7.43
COc1cnccc1CNC(=O)c1cc(C)c(N2CCc3ncc(C(F)(F)F)cc3C2)nn1 [Example 495, N-((3-methoxypyridin-4-yl)methyl)-5-methyl-6-(3-(trifluoromethyl)-7,8-dihydro-1,6-naphthyridin-6(5H)-yl)pyridazine-3-carboxamide]	102%	7.37
Cc1cc(C(=O)N2CCc3cccnc3C2)nnc1N1CCc2ncc(C(F)(F)F)cc2C1 [Example 500, (5,8-dihydro-1,7-naphthyridin-7(6H)-yl)(5-methyl-6-(3-(trifluoromethyl)-7,8-dihydro-1,6-naphthyridin-6(5H)-yl)pyridazin-3-yl)methanone]	92%	5.75
Cc1cc(C(=O)N2CC3CC3C2)nnc1N1CCc2ncc(C(F)(F)F)cc2C1 (centres unmarked) [Example 504, (3-azabicyclo[3.1.0]hexan-3-yl)(5-methyl-6-(3-(trifluoromethyl)-7,8-dihydro-1,6-naphthyridin-6(5H)-yl)pyridazin-3-yl)methanone]	101%	5.41
[2H]C([2H])(NC(=O)c1cc(C)c(N2CCc3ncc(C(F)(F)F)cc3C2)nn1)c1ccncc1 [Example 505, 5-methyl-N-(pyridin-4-ylmethyl-d2)-6-(3-(trifluoromethyl)-7,8-dihydro-1,6-naphthyridin-6(5H)-yl)pyridazine-3-carboxamide]	112%	7.68
Cc1cc(C(=O)N(C)Cc2ccncc2)nnc1N1CCc2ncc(C(F)(F)F)cc2C1 [Example 506, N,5-dimethyl-N-(pyridin-4-ylmethyl)-6-(3-(trifluoromethyl)-7,8-dihydro-1,6-naphthyridin-6(5H)-yl)pyridazine-3-carboxamide]	84%	5.55
[2H]C([2H])(NC(=O)c1cc(C)c(N2CCc3ncc(C(F)(F)F)cc3C2)nn1)c1cscn1 [Example 507, 5-methyl-N-(thiazol-4-ylmethyl-d2)-6-(3-(trifluoromethyl)-7,8-dihydro-1,6-naphthyridin-6(5H)-yl)pyridazine-3-carboxamide]	81%	7.37
[2H]C([2H])(NC(=O)c1cc(C)c(N2CCc3ncc(N4CCCn5nccc54)cc3C2)nn1)c1ccncc1 [Example 509, 6-(3-(6,7-dihydropyrazolo[1,5-a]pyrimidin-4(5H)-yl)-7,8-dihydro-1,6-naphthyridin-6(5H)-yl)-5-methyl-N-(pyridin-4-ylmethyl-d2)pyridazine-3-carboxamide]	104%	7.92
O=C(NCc1cncs1)c1ccc(N2CCc3ncc(C(F)(F)F)cc3C2)nn1 [Example 510, N-(thiazol-5-ylmethyl)-6-(3-(trifluoromethyl)-7,8-dihydro-1,6-naphthyridin-6(5H)-yl)pyridazine-3-carboxamide]	81%	6.07

The next lines start with the values.

Emax at 30 µM	pEC50	Structure (SMILES)
38%	5.54	Cc1nn(C)cc1-c1cnc2c(c1)CN(c1ncc(C(N)=O)cc1C(F)(F)F)CC2 [Example 487, 6-(3-(1,3-dimethyl-1H-pyrazol-4-yl)-7,8-dihydro-1,6-naphthyridin-6(5H)-yl)-5-(trifluoromethyl)nicotinamide]
95%	8.30	Cc1cc(C(=O)NCc2cncs2)nnc1N1CCc2ncc(N3CCCn4nccc43)cc2C1 [Example 489, 6-(3-(6,7-dihydropyrazolo[1,5-a]pyrimidin-4(5H)-yl)-7,8-dihydro-1,6-naphthyridin-6(5H)-yl)-5-methyl-N-(thiazol-5-ylmethyl)pyridazine-3-carboxamide]
91%	7.82	Cc1cnccc1CNC(=O)c1cc(C)c(N2CCc3ncc(N4CCCn5nccc54)cc3C2)nn1 [Example 491, 6-(3-(6,7-dihydropyrazolo[1,5-a]pyrimidin-4(5H)-yl)-7,8-dihydro-1,6-naphthyridin-6(5H)-yl)-5-methyl-N-((3-methylpyridin-4-yl)methyl)pyridazine-3-carboxamide]
110%	7.77	Cc1cc(C(=O)NCc2cncs2)nnc1N1CCc2ncc(C(F)(F)F)cc2C1 [Example 492, 5-methyl-N-(thiazol-5-ylmethyl)-6-(3-(trifluoromethyl)-7,8-dihydro-1,6-naphthyridin-6(5H)-yl)pyridazine-3-carboxamide]
106%	7.44	Cc1cnccc1CNC(=O)c1cc(C)c(N2CCc3ncc(C(F)(F)F)cc3C2)nn1 [Example 494, 5-methyl-N-((3-methylpyridin-4-yl)methyl)-6-(3-(trifluoromethyl)-7,8-dihydro-1,6-naphthyridin-6(5H)-yl)pyridazine-3-carboxamide]
102%	7.43	Cc1cc(C(=O)NCc2ccncc2F)nnc1N1CCc2ncc(C(F)(F)F)cc2C1 [Example 496, N-((3-fluoropyridin-4-yl)methyl)-5-methyl-6-(3-(trifluoromethyl)-7,8-dihydro-1,6-naphthyridin-6(5H)-yl)pyridazine-3-carboxamide]
101%	7.19	Cc1cc(C(=O)NCc2ccncc2Cl)nnc1N1CCc2ncc(C(F)(F)F)cc2C1 [Example 497, N-((3-chloropyridin-4-yl)methyl)-5-methyl-6-(3-(trifluoromethyl)-7,8-dihydro-1,6-naphthyridin-6(5H)-yl)pyridazine-3-carboxamide]
85%	5.50	Cc1cc(C(=O)N2CCc3cnccc3C2)nnc1N1CCc2ncc(C(F)(F)F)cc2C1 [Example 498, (3,4-dihydro-2,6-naphthyridin-2(1H)-yl)(5-methyl-6-(3-(trifluoromethyl)-7,8-dihydro-1,6-naphthyridin-6(5H)-yl)pyridazin-3-yl)methanone]
88%	5.57	Cc1cc(C(=O)N2CCc3ccncc3C2)nnc1N1CCc2ncc(C(F)(F)F)cc2C1 [Example 499, (3,4-dihydro-2,7-naphthyridin-2(1H)-yl)(5-methyl-6-(3-(trifluoromethyl)-7,8-dihydro-1,6-naphthyridin-6(5H)-yl)pyridazin-3-yl)methanone]
109%	6.90	Cc1cc(C(=O)NC2CCc3ncccc3C2)nnc1N1CCc2ncc(C(F)(F)F)cc2C1 (centres unmarked) [Example 501, 5-methyl-N-(5,6,7,8-tetrahydroquinolin-6-yl)-6-(3-(trifluoromethyl)-7,8-dihydro-1,6-naphthyridin-6(5H)-yl)pyridazine-3-carboxamide]
105%	5.45	Cc1cc(C(=O)N2CCCC2)nnc1N1CCc2ncc(C(F)(F)F)cc2C1 [Example 502, (5-methyl-6-(3-(trifluoromethyl)-7,8-dihydro-1,6-naphthyridin-6(5H)-yl)pyridazin-3-yl)(pyrrolidin-1-yl)methanone]
103%	5.39	Cc1cc(C(=O)N2CCCn3nccc32)nnc1N1CCc2ncc(C(F)(F)F)cc2C1 [Example 503, (6,7-dihydropyrazolo[1,5-a]pyrimidin-4(5H)-yl)(5-methyl-6-(3-(trifluoromethyl)-7,8-dihydro-1,6-naphthyridin-6(5H)-yl)pyridazin-3-yl)methanone]
82%	7.89	[2H]C([2H])(NC(=O)c1cc(C)c(N2CCc3ncc(N4CCCn5nccc54)cc3C2)nn1)c1cscn1 [Example 508, 6-(3-(6,7-dihydropyrazolo[1,5-a]pyrimidin-4(5H)-yl)-7,8-dihydro-1,6-naphthyridin-6(5H)-yl)-5-methyl-N-(thiazol-4-ylmethyl-d2)pyridazine-3-carboxamide]
75%	5.50	O=C(NCc1ccncc1)c1ccc(N2CCc3ncc(C(F)(F)F)cc3C2)nn1 [Example 511, N-(pyridin-4-ylmethyl)-6-(3-(trifluoromethyl)-7,8-dihydro-1,6-naphthyridin-6(5H)-yl)pyridazine-3-carboxamide]
